The results in this text go back to patent publication US20260283927A1, “CRYSTALLINE FORM OF CERAMIDE NP AND COMPOSITION INCLUDING THE SAME” (CRODA KOREA LTD., priority 2023, published 2026).

The format of the data set is physicochemical. The protocol:
Thermogravimetric analysis (TGA) was performed using a Mettler TGA 2 equipped with a 34 position auto-sampler. The instrument was calibrated for energy and temperature using certified Isoderm and Nickel. 10.01 mg of the ceramide NP powder of Example 1 was added to a pinhole aluminum pan and heated from 20° C. to 800° C. at 10° C./min to perform thermogravimetric analysis. The TGA results of the ceramide NP powder of Example 1 are shown in FIG. 7, and the TGA results of the ceramide NP powder of Comparative Example 1 are shown in FIG. 8. The TGA results of ceramide NP powder of Example 1 and the ceramide NP powder of Comparative Example 1 are compared to each other by being arranged to overlap each other in FIG. 9.

`CCCCCCCC/C=C\CCCCCCCC(=O)N[C@@H](CO)[C@H](O)[C@H](O)CCCCCCCCCCCCCC` [Example 1, ceramide NP]: the mass remaining result is reported as “about 95%” and the “stability compared with ceramide NP powder of Comparative Example 1” value was “more stable”. Further, the “temperature at which decomposition began (no weight loss until then)” value (TGA, heated from 20° C. to 800° C. at 10° C./min) is 200 °C.

“ceramide NP [Comparative Example 1, reference compound]”: the mass remaining result was “about 95%”.
